Test system: MV-4-11 cells
Test: Gene expression microarray analysis (Affymetrix PrimeView) and GSEA
Assay type: cell-based, human
Set-up: RFU PODN (11730768_x_at) / Fold change /veh PODN (11730768_x_at) / RFU LINC00158 (11744669_a_at) / Fold change /veh LINC00158 (11744669_a_at) / RFU DUSP10 (11751237_a_at) / Fold change /veh DUSP10 (11751237_a_at) / RFU ID3 (11757404_x_at) / Fold change /veh ID3 (11757404_x_at) / RFU PLEKHG5 (11737974_s_at) / Fold change /veh PLEKHG5 (11737974_s_at) / RFU LRRC4B (11730491_at) / Fold change /veh LRRC4B (11730491_at) / RFU GIMAP4 (11747438_a_at) / Fold change /veh GIMAP4 (11747438_a_at) / RFU KRT8 (11758183_x_at) / Fold change /veh KRT8 (11758183_x_at) / RFU CNN1 (11734310_a_at) / Fold change /veh CNN1 (11734310_a_at) / RFU VPS37D (11726825_at) / Fold change /veh VPS37D (11726825_at) / RFU C10orf10 (11716522_x_at) / Fold change /veh C10orf10 (11716522_x_at) / RFU KIR2DL2 /// KIR2DL4 /// KIR2DL5A /// KIR2DL5B /// KIR2DS1 /// KIR2DS2 /// KIR2DS3 /// KIR2DS4 /// KIR3DL3 /// KIR3DL3 /// KIR3DS1 (11738374_at) / Fold change /veh KIR2DL2 /// KIR2DL4 /// KIR2DL5A /// KIR2DL5B /// KIR2DS1 /// KIR2DS2 /// KIR2DS3 /// KIR2DS4 /// KIR3DL3 /// KIR3DL3 /// KIR3DS1 (11738374_at) / RFU C1QL1 (11718748_at) / Fold change /veh C1QL1 (11718748_at) / RFU TMPRSS4 (11747572_a_at) / Fold change /veh TMPRSS4 (11747572_a_at) / RFU HAMP (11756126_x_at) / Fold change /veh HAMP (11756126_x_at) / RFU RNFT2 (11725882_a_at) / Fold change /veh RNFT2 (11725882_a_at) / RFU NR4A2 (11747474_a_at) / Fold change /veh NR4A2 (11747474_a_at) / RFU ABCC12 (11746883_a_at) / Fold change /veh ABCC12 (11746883_a_at) / RFU TMEM136 (11760407_x_at) / Fold change /veh TMEM136 (11760407_x_at) / RFU CLDN22 /// WWC2 (11732394_at) / Fold change /veh CLDN22 /// WWC2 (11732394_at) / RFU HLA-DPB1 (11760878_x_at) / Fold change /veh HLA-DPB1 (11760878_x_at) / RFU SPINT1 (11716480_a_at) / Fold change /veh SPINT1 (11716480_a_at) / RFU GAP43 (11754022_s_at) / Fold change /veh GAP43 (11754022_s_at) / RFU A4GNT (11735810_at) / Fold change /veh A4GNT (11735810_at) / RFU PRB3 (11715151_x_at) / Fold change /veh PRB3 (11715151_x_at) / RFU TUBB4B (11761932_at) / Fold change /veh TUBB4B (11761932_at) / RFU CAPN14 (11732068_a_at) / Fold change /veh CAPN14 (11732068_a_at) / RFU TMCC2 (11721928_a_at) / Fold change /veh TMCC2 (11721928_a_at) / RFU IRGQ (11745062_a_at) / Fold change /veh IRGQ (11745062_a_at) / RFU FAM174B (11720279_a_at) / Fold change /veh FAM174B (11720279_a_at) / RFU TMPRSS4 (11748680_a_at) / Fold change /veh TMPRSS4 (11748680_a_at) / RFU FAM212B (11763350_a_at) / Fold change /veh FAM212B (11763350_a_at) / RFU PLEKHG5 (11743358_a_at) / Fold change /veh PLEKHG5 (11743358_a_at) / RFU ZSCAN30 (11745921_a_at) / Fold change /veh ZSCAN30 (11745921_a_at) / RFU CMKLR1 (11741424_a_at) / Fold change /veh CMKLR1 (11741424_a_at) / RFU LOC101060620 /// MAPK8IP1 (11723275_at) / Fold change /veh LOC101060620 /// MAPK8IP1 (11723275_at) / RFU SPTSSB (11747773_x_at) / Fold change /veh SPTSSB (11747773_x_at) / RFU PRSS12 (11739890_at) / Fold change /veh PRSS12 (11739890_at) / RFU BIN1 (11741810_x_at) / Fold change /veh BIN1 (11741810_x_at) / RFU WNT11 (11732464_a_at) / Fold change /veh WNT11 (11732464_a_at) / RFU C10orf10 (11716521_a_at) / Fold change /veh C10orf10 (11716521_a_at) / RFU C5orf56 (11738089_at) / Fold change /veh C5orf56 (11738089_at) / RFU CYB561 (11721691_x_at) / Fold change /veh CYB561 (11721691_x_at) / RFU ANKRD19P (11752326_a_at) / Fold change /veh ANKRD19P (11752326_a_at) / RFU OR2T12 /// OR2T33 /// OR2T8 (11738714_s_at) / Fold change /veh OR2T12 /// OR2T33 /// OR2T8 (11738714_s_at) / RFU VCAN (11748164_a_at) / Fold change /veh VCAN (11748164_a_at) / RFU JSRP1 (11732532_at) / Fold change /veh JSRP1 (11732532_at) / RFU KRTAP10-11 (11738290_x_at) / Fold change /veh KRTAP10-11 (11738290_x_at) / RFU MYO3A (11730013_a_at) / Fold change /veh MYO3A (11730013_a_at) / RFU EBF3 (11725865_a_at) / Fold change /veh EBF3 (11725865_a_at) / RFU CAMK2N1 (11719241_x_at) / Fold change /veh CAMK2N1 (11719241_x_at) / RFU C5orf56 (11738088_a_at) / Fold change /veh C5orf56 (11738088_a_at) / RFU OLFML3 (11715873_a_at) / Fold change /veh OLFML3 (11715873_a_at) / RFU LOC100653217 /// NTM (11731650_a_at) / Fold change /veh LOC100653217 /// NTM (11731650_a_at) / RFU MAPK11 (11762145_a_at) / Fold change /veh MAPK11 (11762145_a_at) / RFU FIZ1 (11724087_x_at) / Fold change /veh FIZ1 (11724087_x_at) / RFU OASL (11726364_x_at) / Fold change /veh OASL (11726364_x_at) / RFU SOX15 (11748057_x_at) / Fold change /veh SOX15 (11748057_x_at) / RFU CD79A (11719716_a_at) / Fold change /veh CD79A (11719716_a_at) / RFU HIST1H1D (11736915_at) / Fold change /veh HIST1H1D (11736915_at) / RFU CASKIN2 (11723855_a_at) / Fold change /veh CASKIN2 (11723855_a_at) / RFU LOC730098 (11760151_x_at) / Fold change /veh LOC730098 (11760151_x_at) / RFU OR4N2 (11742367_at) / Fold change /veh OR4N2 (11742367_at) / RFU PRRT2 (11749266_a_at) / Fold change /veh PRRT2 (11749266_a_at) / RFU SNX32 (11753110_a_at) / Fold change /veh SNX32 (11753110_a_at) / RFU CDHR5 (11726645_a_at) / Fold change /veh CDHR5 (11726645_a_at) / RFU RCAN1 (11760418_a_at) / Fold change /veh RCAN1 (11760418_a_at) / RFU FAM167A (11723789_a_at) / Fold change /veh FAM167A (11723789_a_at) / RFU FAM26E (11764081_at) / Fold change /veh FAM26E (11764081_at) / RFU ISYNA1 (11749810_s_at) / Fold change /veh ISYNA1 (11749810_s_at) / RFU ACY1 (11761880_at) / Fold change /veh ACY1 (11761880_at) / RFU 11764098_at / Fold change /veh 11764098_at / RFU SAMD14 (11745864_x_at) / Fold change /veh SAMD14 (11745864_x_at) / RFU NPB (11741838_a_at) / Fold change /veh NPB (11741838_a_at) / RFU TMPRSS6 (11731388_a_at) / Fold change /veh TMPRSS6 (11731388_a_at) / RFU KRTAP10-2 (11738614_at) / Fold change /veh KRTAP10-2 (11738614_at) / RFU ARHGAP8 /// PRR5-ARHGAP8 (11727945_x_at) / Fold change /veh ARHGAP8 /// PRR5-ARHGAP8 (11727945_x_at) / RFU KRTAP5-7 /// NADSYN1 (11734609_at) / Fold change /veh KRTAP5-7 /// NADSYN1 (11734609_at) / RFU RASL12 (11751679_a_at) / Fold change /veh RASL12 (11751679_a_at) / RFU CDKN2B (11736163_a_at) / Fold change /veh CDKN2B (11736163_a_at) / RFU PRF1 (11729649_at) / Fold change /veh PRF1 (11729649_at) / RFU, ZNF638 /// ZNF638-IT1 / Fold change vs veh, ZNF638 /// ZNF638-IT1 / RFU, PANK3 / Fold change vs veh, PANK3 / RFU, SH3YL1 / Fold change vs veh, SH3YL1 / RFU, ZEB2 / Fold change vs veh, ZEB2 / RFU, NRIP1 / Fold change vs veh, NRIP1 / RFU, PTTG1IP / Fold change vs veh, PTTG1IP / RFU, CAPN2 / Fold change vs veh, CAPN2 / RFU, MED14 / Fold change vs veh, MED14 / RFU, SNORA58 / Fold change vs veh, SNORA58 / RFU, C1orf63 / Fold change vs veh, C1orf63 / RFU, LRRFIP1 / Fold change vs veh, LRRFIP1 / RFU, NDUFAF7 / Fold change vs veh, NDUFAF7 / RFU, SLC12A2 / Fold change vs veh, SLC12A2 / RFU, IBTK / Fold change vs veh, IBTK / RFU, ESF1 / Fold change vs veh, ESF1 / Fold change vs veh, TMEM50B / RFU, TAOK1 / Fold change vs veh, TAOK1 / RFU, ACBD3 / Fold change vs veh, ACBD3 / RFU, TMA16 / Fold change vs veh, TMA16 / RFU, RWDD3 / Fold change vs veh, RWDD3 / RFU, BCAT1 / Fold change vs veh, BCAT1 / RFU, EDEM3 / Fold change vs veh, EDEM3 / RFU, TMEM33 / Fold change vs veh, TMEM33 / RFU, WDR75 / Fold change vs veh, WDR75 / RFU, AHCTF1 / Fold change vs veh, AHCTF1 / RFU, TFRC / Fold change vs veh, TFRC / RFU, ZDHHC17 / Fold change vs veh, ZDHHC17 / RFU, NOM1 / Fold change vs veh, NOM1 / RFU, ARL8B / Fold change vs veh, ARL8B / RFU, ZBTB11 / Fold change vs veh, ZBTB11 / RFU, TAMM41 / Fold change vs veh, TAMM41 / RFU, KIAA1704 /// LOC100996395 / Fold change vs veh, KIAA1704 /// LOC100996395 / RFU, ING1 / Fold change vs veh, ING1 / RFU, TRMT61B / Fold change vs veh, TRMT61B / RFU, FUBP3 / Fold change vs veh, FUBP3 / RFU, TP53 / Fold change vs veh, TP53 / RFU, TNKS2 / Fold change vs veh, TNKS2 / RFU, ZFP14 / Fold change vs veh, ZFP14 / RFU, ACTR2 / Fold change vs veh, ACTR2 / RFU, PPP3R1 / Fold change vs veh, PPP3R1 / RFU, PIK3R1 / Fold change vs veh, PIK3R1 / RFU, HNRNPA1 / Fold change vs veh, HNRNPA1 / RFU, RNF170 / Fold change vs veh, RNF170 / RFU, ZNF28 / Fold change vs veh, ZNF28 / RFU, RNGTT / Fold change vs veh, RNGTT / RFU, OGT / Fold change vs veh, OGT / RFU, BRD1 / Fold change vs veh, BRD1 / RFU, MARS / Fold change vs veh, MARS / RFU, ZNF655 / Fold change vs veh, ZNF655 / RFU, FAHD1 / Fold change vs veh, FAHD1 / RFU, BDP1 / Fold change vs veh, BDP1 / RFU, LRRCC1 / Fold change vs veh, LRRCC1 / RFU, ARID1A / Fold change vs veh, ARID1A / RFU, ZNF146 / Fold change vs veh, ZNF146 / RFU, ZNF330 / Fold change vs veh, ZNF330 / RFU, GPN3 / Fold change vs veh, GPN3 / RFU, C9orf123 / Fold change vs veh, C9orf123 / RFU, N4BP2L2 / Fold change vs veh, N4BP2L2 / RFU, ARFIP1 / Fold change vs veh, ARFIP1 / RFU, FAM179B / Fold change vs veh, FAM179B / RFU, BCL10 / Fold change vs veh, BCL10 / RFU, UHRF1BP1L / Fold change vs veh, UHRF1BP1L / RFU, BET1 / Fold change vs veh, BET1 / RFU, CNOT2 / Fold change vs veh, CNOT2 / RFU, ZNF268 / Fold change vs veh, ZNF268 / Fold change vs veh, ZNF507 / RFU, DGCR2 / Fold change vs veh, DGCR2 / RFU, WDSUB1 / Fold change vs veh, WDSUB1 / Fold change vs veh, HSP90B1 /// MIR3652 / RFU, ADSS / Fold change vs veh, ADSS / RFU, GK / Fold change vs veh, GK / RFU, ZNF148 / Fold change vs veh, ZNF148 / RFU, TAF9 / Fold change vs veh, TAF9 / RFU, SLC1A5 / Fold change vs veh, SLC1A5 / RFU, SLMO2 / Fold change vs veh, SLMO2 / RFU, ABCC4 / Fold change vs veh, ABCC4 / RFU, LOC101060439 /// RAP1B / Fold change vs veh, LOC101060439 /// RAP1B / RFU, RFX7 / Fold change vs veh, RFX7 / RFU, GTPBP10 / Fold change vs veh, GTPBP10 / RFU, CNEP1R1 / Fold change vs veh, CNEP1R1 / RFU, BIVM-ERCC5 /// ERCC5 / Fold change vs veh, BIVM-ERCC5 /// ERCC5 / RFU, ILF3 / Fold change vs veh, ILF3 / RFU 11762660_at / Fold change /veh 11762660_at / RFU VCAN (11757783_s_at) / Fold change /veh VCAN (11757783_s_at) / RFU DDX43 (11728927_at) / Fold change /veh DDX43 (11728927_at) / RFU KRT8 (11758188_x_at) / Fold change /veh KRT8 (11758188_x_at) / RFU NKD1 (11759106_at) / Fold change /veh NKD1 (11759106_at) / RFU SRD5A1 (11742802_a_at) / Fold change /veh SRD5A1 (11742802_a_at) / RFU TPSAB1 /// TPSB2 (11721975_s_at) / Fold change /veh TPSAB1 /// TPSB2 (11721975_s_at) / RFU GSTM3 (11746129_a_at) / Fold change /veh GSTM3 (11746129_a_at) / RFU IL23R (11737362_x_at) / Fold change /veh IL23R (11737362_x_at) / RFU TMEM51 (11727254_a_at) / Fold change /veh TMEM51 (11727254_a_at) / RFU PIWIL2 (11732686_x_at) / Fold change /veh PIWIL2 (11732686_x_at) / RFU ORM1 (11744905_x_at) / Fold change /veh ORM1 (11744905_x_at) / RFU CCDC152 (11743942_at) / Fold change /veh CCDC152 (11743942_at) / RFU ECM1 (11717891_a_at) / Fold change /veh ECM1 (11717891_a_at) / RFU IL23R (11748794_a_at) / Fold change /veh IL23R (11748794_a_at) / RFU TNFAIP8L3 (11732012_x_at) / Fold change /veh TNFAIP8L3 (11732012_x_at) / RFU MBOAT4 (11741988_at) / Fold change /veh MBOAT4 (11741988_at) / RFU 11764193_at / Fold change /veh 11764193_at / RFU TMEM53 (11763286_at) / Fold change /veh TMEM53 (11763286_at) / RFU MAGEB2 (11727129_at) / Fold change /veh MAGEB2 (11727129_at) / RFU TMEM200A (11744735_a_at) / Fold change /veh TMEM200A (11744735_a_at) / RFU CCDC152 (11751479_a_at) / Fold change /veh CCDC152 (11751479_a_at) / RFU FAM211A (11726209_a_at) / Fold change /veh FAM211A (11726209_a_at) / RFU RGS16 (11746705_a_at) / Fold change /veh RGS16 (11746705_a_at) / RFU VCAN (11755009_s_at) / Fold change /veh VCAN (11755009_s_at) / RFU RHOB (11743442_s_at) / Fold change /veh RHOB (11743442_s_at) / RFU RGS16 (11720943_a_at) / Fold change /veh RGS16 (11720943_a_at) / RFU RGS16 (11720944_at) / Fold change /veh RGS16 (11720944_at) / RFU, VPS4B / Fold change vs veh, VPS4B / RFU, CREB1 / Fold change vs veh, CREB1 / RFU, DNAJC13 / Fold change vs veh, DNAJC13 / RFU, GNAQ / Fold change vs veh, GNAQ / RFU, CDK5R1 / Fold change vs veh, CDK5R1 / RFU, ZRANB3 / Fold change vs veh, ZRANB3 / RFU, CUL4A / Fold change vs veh, CUL4A / RFU, CCNY / Fold change vs veh, CCNY / RFU, UFL1 / Fold change vs veh, UFL1 / RFU, COG3 / Fold change vs veh, COG3 / RFU, DIAPH2 / Fold change vs veh, DIAPH2 / RFU, SKA2 / Fold change vs veh, SKA2 / RFU, AFF3 / Fold change vs veh, AFF3 / RFU, LMF1 / Fold change vs veh, LMF1 / RFU, IPO11 / Fold change vs veh, IPO11 / RFU, DFFB / Fold change vs veh, DFFB / RFU, FOXP1 / Fold change vs veh, FOXP1 / RFU, CARD8 / Fold change vs veh, CARD8 / RFU, STRN3 / Fold change vs veh, STRN3 / RFU, ADK / Fold change vs veh, ADK / RFU, RASSF2 / Fold change vs veh, RASSF2 / RFU, WIPF1 / Fold change vs veh, WIPF1 / RFU, LARP1B / Fold change vs veh, LARP1B / RFU, RASA1 / Fold change vs veh, RASA1 / RFU, RB1 / Fold change vs veh, RB1 / RFU, PPFIA1 / Fold change vs veh, PPFIA1 / RFU, MAT2A / Fold change vs veh, MAT2A / RFU, CCT5 / Fold change vs veh, CCT5 / RFU, WDR92 / Fold change vs veh, WDR92 / RFU, CUX1 / Fold change vs veh, CUX1 / RFU, TTC7A / Fold change vs veh, TTC7A / RFU, TMEM135 / Fold change vs veh, TMEM135 / RFU, DEPTOR / Fold change vs veh, DEPTOR / RFU, CPM / Fold change vs veh, CPM / RFU, DNAJB6 / Fold change vs veh, DNAJB6 / RFU, CACNA2D3 / Fold change vs veh, CACNA2D3 / RFU, DTX4 / Fold change vs veh, DTX4 / RFU, TFCP2 / Fold change vs veh, TFCP2 / RFU, GMCL1 /// GMCL1P1 / Fold change vs veh, GMCL1 /// GMCL1P1 / RFU, AEBP2 / Fold change vs veh, AEBP2 / RFU, SNHG1 /// SNORD22 /// SNORD25 /// SNORD26 /// SNORD27 /// SNORD28 /// SNORD29 /// SNORD31 / Fold change vs veh, SNHG1 /// SNORD22 /// SNORD25 /// SNORD26 /// SNORD27 /// SNORD28 /// SNORD29 /// SNORD31 / Fold change (Aza/veh), C12orf56 (ProbeSet 11735607_a_at) / Fold change (ACY-1035/veh), C12orf56 (ProbeSet 11735607_a_at) / Fold change (Aza/veh), FGFR1OP (ProbeSet 11751329_s_at) / Fold change (ACY-1035/veh), FGFR1OP (ProbeSet 11751329_s_at) / Fold change (Aza/veh), VPS36 (ProbeSet 11739960_a_at) / Fold change (ACY-1035/veh), VPS36 (ProbeSet 11739960_a_at) / RFU SYPL1 (11715823_x_at) / Fold change /veh SYPL1 (11715823_x_at) / RFU IGFBP7 (11715501_s_at) / Fold change /veh IGFBP7 (11715501_s_at) / RFU REEP3 (11722064_at) / Fold change /veh REEP3 (11722064_at) / RFU IGLL1 (11728026_x_at) / Fold change /veh IGLL1 (11728026_x_at): dose or concentration left out as unconfirmed
Settings: MV-4-11 cells, 48 hours

For `Nc1ncn([C@@H]2O[C@H](CO)[C@@H](O)[C@H]2O)c(=O)n1` [azacitidine], the “Fold change /veh PRF1 (11729649_at)” value was 1.08.

From publication PMC5218480 (PLoS ONE, 2017)
